As a reminder, the AC50 is the midpoint of the concentration-response curve, whichever way the signal moves.

SMILES strings stand for the structures. A value given as a limit tells only on which side of the number the result lay.

The target of one test is T1, human PAH with the R408W mutation (A375 R408W cells) (Homo sapiens, UniProt P00439, R408W).
T1 construct: expressed in transfected cells
T1 sequence (P00439 1-452 R408W): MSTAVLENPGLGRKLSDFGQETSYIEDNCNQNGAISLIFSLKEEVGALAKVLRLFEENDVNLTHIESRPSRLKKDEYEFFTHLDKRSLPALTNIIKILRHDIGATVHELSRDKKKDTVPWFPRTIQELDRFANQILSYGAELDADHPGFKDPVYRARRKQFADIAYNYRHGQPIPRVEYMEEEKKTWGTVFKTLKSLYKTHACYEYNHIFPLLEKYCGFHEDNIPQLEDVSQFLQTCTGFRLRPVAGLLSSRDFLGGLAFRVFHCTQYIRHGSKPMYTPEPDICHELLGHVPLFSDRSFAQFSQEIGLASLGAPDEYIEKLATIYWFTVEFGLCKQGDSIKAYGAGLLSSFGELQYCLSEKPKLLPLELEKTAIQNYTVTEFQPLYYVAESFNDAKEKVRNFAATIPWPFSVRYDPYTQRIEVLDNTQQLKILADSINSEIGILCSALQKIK
Kind of test: Cell Based Phenylalanine Flux Assay. The conditions noted are these: A375 R408W cells; 24 hrs with compound, then 20 μM sepiapterin and 800 μM 13C9,15N-Phenylalanine for 4 hours; 13C-Tyrosine by LC-MS; average where tested multiple times. A digest of the protocol:
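A375 cells stably expressing human PAH R408W treated 24 h at 37° C with a 10-point 2-fold dose curve in duplicate, 0.5% DMSO. Then 20 μM sepiapterin and 800 μM 13C9,15N-Phe added for 4 h; 13C-Tyr in media measured by LC-MS to give AC50.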
Turning to `O=C(c1oc(N2CCOCC2)nc1C(F)F)N1CCc2[nH]cnc2[C@H]1c1nc2cccc(F)c2o1` [Example 648, (S)-(4-(difluoromethyl)-2-morpholinooxazol-5-yl)(4-(7-fluorobenzo[d]oxazol-2-yl)-6,7-dihydro-1H-imidazo[4,5-c]pyridin-5(4H)-yl)methanone], the AC50 was no more than 500 nM.
For the compound `O=C(c1ocnc1C(F)F)N1CCc2[nH]cnc2[C@@H]1c1nc2ccc(Br)cc2o1` [Example 146, (R)-(4-(6-bromobenzo[d]oxazol-2-yl)-6,7-dihydro-1H-imidazo[4,5-c]pyridin-5(4H)-yl)(4-(difluoromethyl)oxazol-5-yl)methanone], the AC50 was 500 to 1000 nM.
The same measure, in the same setting: the value for `Cc1cccc2oc([C@H]3c4nc[nH]c4CCN3C(=O)c3nnc(-c4cnn(C)c4)o3)nc12` [Example 479, (R)-(5-(1-methyl-1H-pyrazol-4-yl)-1,3,4-oxadiazol-2-yl)(4-(4-methylbenzo[d]oxazol-2-yl)-6,7-dihydro-1H-imidazo[4,5-c]pyridin-5(4H)-yl)methanone] was 500 to 1000 nM.
For `Cn1nccc1C(=O)N1Cc2[nH]cnc2[C@H]1c1nc2ccccc2o1` [Example 924, (S)-(4-(benzo[d]oxazol-2-yl)-4,6-dihydropyrrolo[3,4-d]imidazol-5(1H)-yl)(1-methyl-1H-pyrazol-5-yl)methanone], the AC50 fell in the range of 1000 to 5000 nM.
With `Cc1cccc2oc([C@@H]3c4nc[nH]c4CCN3C(=O)c3ncnn3C)nc12` [Example 901, (S)-(1-methyl-1H-1,2,4-triazol-5-yl)(4-(4-methylbenzo[d]oxazol-2-yl)-6,7-dihydro-1H-imidazo[4,5-c]pyridin-5(4H)-yl)methanone], the AC50 fell in the range of 500 to 1000 nM.
In the case of `CNC(C)(C)c1nc(C(F)F)c(C(=O)N2CCc3[nH]cnc3[C@@H]2c2nc3cc(F)ccc3o2)o1` [Example 222, (R)-(4-(difluoromethyl)-2-(2-(methylamino)propan-2-yl)oxazol-5-yl)(4-(5-fluorobenzo[d]oxazol-2-yl)-6,7-dihydro-1H-imidazo[4,5-c]pyridin-5(4H)-yl)methanone], the AC50 was 1000 to 5000 nM.
Same read-out and setting: then `O=C(c1ocnc1C(F)F)N1CCc2[nH]cnc2[C@H]1c1nc2c(F)ccc(F)c2o1` [Example 373, (S)-(4-(4,7-difluorobenzo[d]oxazol-2-yl)-6,7-dihydro-1H-imidazo[4,5-c]pyridin-5(4H)-yl)(4-(difluoromethyl)oxazol-5-yl)methanone], with no more than 500 nM; and `Cn1cnc(-c2nnc(C(=O)N3CCc4[nH]cnc4[C@H]3c3nc4c(F)ccc(F)c4o3)o2)c1` [Example 817, (S)-(4-(4,7-difluorobenzo[d]oxazol-2-yl)-6,7-dihydro-1H-imidazo[4,5-c]pyridin-5(4H)-yl)(5-(1-methyl-1H-imidazol-4-yl)-1,3,4-oxadiazol-2-yl)methanone], with 500 to 1000 nM.
As to `Cc1cccc2oc([C@@H]3c4nc[nH]c4CCN3C(=O)c3cnco3)nc12` [Example 509, (S)-(4-(4-methylbenzo[d]oxazol-2-yl)-6,7-dihydro-1H-imidazo[4,5-c]pyridin-5(4H)-yl)(oxazol-5-yl)methanone], the AC50 was no more than 500 nM.
On to `Cc1cccc2nc([C@H]3c4nc[nH]c4CCN3C(=O)c3nc(C(F)(F)F)nn3C)oc12` [Example 686, (R)-(1-methyl-3-(trifluoromethyl)-1H-1,2,4-triazol-5-yl)(4-(7-methylbenzo[d]oxazol-2-yl)-6,7-dihydro-1H-imidazo[4,5-c]pyridin-5(4H)-yl)methanone], for which the AC50 was 1000 to 5000 nM.
The same measure, in the same setting: then `O=C(c1oc(N2CCC(F)CC2)nc1C(F)F)N1CCc2[nH]cnc2[C@@H]1c1nc2cc(F)ccc2o1` [Example 402, (R)-(4-(difluoromethyl)-2-(4-fluoropiperidin-1-yl)oxazol-5-yl)(4-(5-fluorobenzo[d]oxazol-2-yl)-6,7-dihydro-1H-imidazo[4,5-c]pyridin-5(4H)-yl)methanone], with 1000 to 5000 nM.
For the compound `Cn1cncc1-c1nc(C(F)F)c(C(=O)N2CCc3[nH]cnc3[C@H]2c2nc3cccc(F)c3o2)o1` [Example 692, (S)-(4-(difluoromethyl)-2-(1-methyl-1H-imidazol-5-yl)oxazol-5-yl)(4-(7-fluorobenzo[d]oxazol-2-yl)-6,7-dihydro-1H-imidazo[4,5-c]pyridin-5(4H)-yl)methanone], the AC50 is no more than 500 nM.
Same read-out and setting: the value for `O=C(c1ocnc1C(F)(F)F)N1CCc2[nH]cnc2[C@H]1c1nc2cc(Br)ccc2o1` [Example 147, (S)-(4-(5-bromobenzo[d]oxazol-2-yl)-6,7-dihydro-1H-imidazo[4,5-c]pyridin-5(4H)-yl)(4-(trifluoromethyl)oxazol-5-yl)methanone] was no more than 500 nM.
Still for that read-out and setting: the value for `CC(C)(O)c1nc(C(F)(F)F)c(C(=O)N2CCc3[nH]cnc3[C@@H]2c2nc3ccc(F)cc3o2)o1` [Example 256, (R)-(4-(6-fluorobenzo[d]oxazol-2-yl)-6,7-dihydro-1H-imidazo[4,5-c]pyridin-5(4H)-yl)(2-(2-hydroxypropan-2-yl)-4-(trifluoromethyl)oxazol-5-yl)methanone] was 1000 to 5000 nM; that for `O=C(c1ocnc1CC(F)F)N1CCc2[nH]cnc2[C@H]1c1nc2cc(F)ccc2o1` [Example 865, (S)-(4-(2,2-difluoroethyl)oxazol-5-yl)(4-(5-fluorobenzo[d]oxazol-2-yl)-6,7-dihydro-1H-imidazo[4,5-c]pyridin-5(4H)-yl)methanone] was no more than 500 nM.
Still for that read-out and setting: then `CC(C)(O)c1nc(C(F)F)c(C(=O)N2CCc3[nH]cnc3[C@@H]2c2nc3cc(Br)ccc3o2)o1` [Example 416, [(4R)-4-(5-bromo-1,3-benzoxazol-2-yl)-1,4,6,7-tetrahydroimidazo[4,5-c]pyridin-5-yl]-[4-(difluoromethyl)-2-(1-hydroxy-1-methyl-ethyl)oxazol-5-yl]methanone], with 500 to 1000 nM; and `O=C(c1ocnc1C(F)(F)F)N1CCc2[nH]cnc2[C@@H]1c1nc2cc(Br)ccc2o1` [Example 148, (R)-(4-(5-bromobenzo[d]oxazol-2-yl)-6,7-dihydro-1H-imidazo[4,5-c]pyridin-5(4H)-yl)(4-(trifluoromethyl)oxazol-5-yl)methanone], with no more than 500 nM.

The same test, now with this note: A375 cells expressing R408W PAH; 24 hrs with compound, then 20 μM sepiapterin and 800 μM 13C9,15N-Phenylalanine for 4 hours; 13C-Tyrosine by LC-MS; average where tested multiple times.
Turning to `Cc1ccc2oc(C3c4nc[nH]c4CCN3C(=O)c3cnco3)nc2c1` (centres unmarked), the AC50 is no less than 5000 nM.
For `CN(C)c1nnc(C(=O)N2CCc3[nH]cnc3C2c2nc3cc(F)ccc3o2)o1` (centres unmarked), the AC50 was in the range of 1000 to 5000 nM.
Take `Cn1cncc1-c1nnc(C(=O)N2CCc3[nH]cnc3C2c2nc3c(F)ccc(F)c3o2)o1` (centres unmarked): the AC50 fell in the range of 1000 to 5000 nM.
Regarding `Cc1nnc(C(=O)N2CCc3[nH]cnc3C2c2nc3cc(F)ccc3o2)o1` (centres unmarked), the AC50 was no less than 5000 nM.
The same measure, in the same setting: the value for `CC(C)(C)OC(=O)N1CC(c2nnc(C(=O)N3CCc4[nH]cnc4C3c3nc4cc(F)ccc4o3)o2)C1` (centres unmarked) was 1000 to 5000 nM; that for `O=C(c1cnco1)N1CCc2[nH]cnc2C1c1nc2c(F)cccc2o1` (centres unmarked) was 1000 to 5000 nM; that for `Cn1ncnc1C(=O)N1CCc2[nH]cnc2C1c1nc2ccc(F)cc2o1` (centres unmarked) was no less than 5000 nM.
Still for that read-out and setting: the value for `CNCc1ccc2c(C(=O)N3CCc4[nH]cnc4C3c3nc4cc(F)ccc4o3)cnn2c1` (centres unmarked) was no less than 5000 nM; that for `O=C(c1cnn2cc(CN3CCOCC3)ccc12)N1CCc2[nH]cnc2C1c1nc2cc(F)ccc2o1` (centres unmarked) was no less than 5000 nM; that for `O=C(c1cnco1)N1CCc2[nH]cnc2C1c1nc2ccc(F)cc2o1` (centres unmarked) was no less than 5000 nM.
On the same count and under the same terms, then `CC(C)(O)c1noc(C(=O)N2CCc3[nH]cnc3C2c2nc3cc(F)ccc3o2)n1` (centres unmarked), with no less than 5000 nM; and `O=C(C1CC1(F)F)N1CCc2[nH]cnc2C1c1nc2cc(F)ccc2o1` (centres unmarked), with no less than 5000 nM.

(Values after US20250171437A1 (Agios Pharmaceuticals,Inc., priority 2022, published 2025).)
